Read-outs that look alike come from different tables or passages of the source.
Legend:
[1] = system: collagen I and III, MMP1, MMP3, MMP9, MMP13; assay: Collagen and MMP expression in the host-lesion microenvironment (TEM, Sirius red, qPCR, western blot); format: in vivo; settings: infected BALB/c mice, 6 weeks oral treatment
Procedure: The metacestodes were fixed with 4% paraformaldehyde and embedded in paraffin to make sections with a thickness of […]. The sections were dewaxed with water, stained with Picrosirius red for 10 min, rinsed and dehydrated with anhydrous ethanol, and sealed with neutral balsam after the xylene was transparent. Each section of 400× visual field image was randomly collected. The ratio of the area of all images collected to the area of the visual field was measured using the ImageJ analysis system, and the percentage of collagen fibre was calculated.
The variations in the microstructure of the protoscoleces or metacestodes were observed under an electron microscope. […] They were washed twice in PBS and then fixed for 3 h with 2.5% glutaraldehyde (pH = 7.2); next, they underwent 2 h post-fixation in 2% OsO4 (SPI-CHEM, West Chester, PA, USA). Subsequently, the samples were washed in double-distilled water and treated with 1% uranyl acetate for 25 min. After the samples were washed again in double-distilled water, dehydration was conducted in ethanol at continuous gradients (30–50–70–80–90–95–100%) over a period of 10 min. For SEM analysis, the dehydrated samples were dipped into hexamethyldisiloxane and then air-dried in a fume hood. The sample was observed under a Hitachi SU8100 scanning electron microscope (Tokyo, Japan) after gold spraying. For TEM analysis, the dehydrated samples passed through a dehydrating agent, and an epoxy resin (SPI-CHEM) permeated and polymerized at 60 °C overnight. A 50-nm ultra-thin section was prepared and then loaded on a 300-mesh copper grid. It was stained with uranyl acetate and lead citrate (SPI-CHEM). The sample was observed under a Hitachi HT7700 transmission electron microscope. To reduce the bias, electron microscopy was observed by professionals in the case of an unknown group.
Total RNA was extracted with TRIzol Reagent (Thermo Fisher Scientific, Waltham, MA, USA) according to the manufacturer’s instructions. The purity and concentrations of RNA were quantified using NanoDrop 2000 absorbance measurements at 260/280 nm. Total RNA was converted into cDNA sequences using the FastKing gDNA Dispelling RT SuperMix Kit (TIANGEN Biotech), and RT-qPCR was performed using the RealUniversal Color PreMix Kit (TIANGEN Biotech) on an ABI QuantStudio 5 system (Applied Biosystems, Waltham, MA, USA). The specific primers are shown in Additional file 4: Table S1. The PCR cycling conditions were as follows: pre-denaturation at 95 °C for 15 min followed by 40 cycles at 95 °C for 10 s and 60 °C for 34 s. The relative mRNA expression levels were quantified using the 2^−ΔΔCT method. RPS18 served as an internal control.
A total protein extraction kit (Solarbio) was used to extract cell or tissue total protein. The protein concentration was determined by the protein quantitative assay kit (Thermo Fisher Scientific). Then, electrophoresis was performed with 20–50 μg of protein sample. The protein was separated by sodium dodecyl sulfate polyacrylamide gel electrophoresis (SDS-PAGE) and transferred to a 0.22 μm PVDF membrane (Merck Millipore, Darmstadt, Germany). The PVDF membrane was blocked with 5% of nonfat powdered milk in Tris-buffered saline Tween 20 (TBST) for 1 h at room temperature. The membrane incubation with primary antibodies was performed at 4 °C overnight. The antibody information is listed in Additional file 5: Table S2. The membrane was washed with TBST and incubated with HRP-labeled secondary antibodies (1:5000, Abclonal, Wuhan, China) for 1 h at room temperature. Blotted membranes were visualized using enhanced chemiluminescence reagents (Thermo Fisher Scientific). Protein expression was depicted as the intensity of each protein relative to that of β-actin using ImageJ software.

[2] = system: IL-2, IL-4, IL-10 and IgE; assay: ELISA of cytokines and IgE in infected mice; format: in vivo; settings: infected BALB/c mice, 6 weeks oral treatment
Procedure: (§1) In vitro-grown metacestode vesicles were pressed through a 500 µm mesh and washed three times with sterile PBS. The parasite tissue was then taken up in an equal volume of sterile PBS. Each mouse was intraperitoneally injected with 200 μl suspension. Seven mice were injected with 200 μl PBS as the control group. Twenty-eight infected mice were randomly distributed into four groups (7 mice/group): the untreated group was not administered any drug; the ABZ group was treated with ABZ orally (100 mg/kg/day); and the Thia15 group and Thia30 group received thiacloprid orally (15 mg/kg/day and 30 mg/kg/day). Treatments of mice started 2 weeks post-infection, and treatments were administered daily for 6 weeks. After 6 weeks of treatment, whole blood via the orbital sinus was collected from mice and the animals were euthanized by CO2. Blood samples were incubated at 37 °C for 1 h and centrifuged at 3500 rpm for 10 min at 4 °C. The serum was harvested and stored at –20 °C for IL-2, IL-4, IL-10 and IgE detection. All metacestode tissues were collected, and the total wet weight of metacestodes per mice was determined. Furthermore, the content of cytokines in microcyst fluid was detected by enzyme-linked immunosorbent assay (ELISA). Several metacestode tissue specimens were processed for transmission electron microscopy (TEM) and histopathological experiments.
ELISA was employed to detect serum IL-2, IL-4, IL-10 and IgE following the manufacturer's instructions. Mouse collagen I and collagen III ELISA kits were used to measure the levels of collagen I and collagen III in the cell culture supernatant after intervention with thiacloprid. All ELISA kits were provided by Elabscience Biotechnology Co., Ltd., Wuhan, China. The OD value at 450 nm was read with a Tecan Infinite M200 PRO enzyme reader (Männedorf, Switzerland), and the concentration was calculated according to the standard curve.

[3] = system: E. multilocularis metacestodes; assay: In vivo treatment of mice experimentally infected with E. multilocularis metacestodes; design: species or system Echinococcus multilocularis
Procedure: as §1
Tissues from experimental animals were washed in PBS and fixed in 4% paraformaldehyde at room temperature for […]. On the next day, they were dehydrated, embedded, and sliced into 5-μm sections. After dewaxing and dehydrating, sections were stained with hematoxylin for 2–5 min, and re-stained with eosin for 15 s. They were sealed with neutral gum and observed under a BX51 microscope (Olympus, Tokyo, Japan).
A Periodic Acid Schiff Stain Kit (Solarbio, Beijing, China) was used to show the PAS-positive laminated layer characteristic of E. multilocularis metacestodes. The section (5 μm) was dewaxed in xylene and rehydrated in 100%, 95%, 80%, and 75% alcohol baths. Staining was then carried out according to the kit instructions.

[4] = system: acetylcholinesterase; assay: Acetylcholinesterase activity (Ellman) in extracts of protoscoleces, metacestodes and germinal cells; format: biochemical, Echinococcus multilocularis; settings: extract; thiacloprid 5 μM, 37 °C 10 min; BW284c51 positive control
Procedure: The effects of thiacloprid on the acetylcholinesterase activity of E. multilocularis protoscoleces, metacestodes and germinal cells were determined according to a previously described method. The protoscoleces, metacestode and germinal cells were washed twice with PBS and homogenized with an electric homogenizer in precooled PBS. Centrifugation of the homogenates was performed at 100,000×g for 30 min. The protein concentration of the supernatant was determined by the modified Lowry method according to the instructions, and the concentration was adjusted to 2 mg/ml. Thiacloprid (5 μM) was added to the extract and incubated at 37 °C for 10 min. The extract was supplemented with 0.1% DMSO as control. Subsequently, acetylcholinesterase activity was assessed according to Ellman’s procedure using a microplate with 260 µl of 0.1 M PBS buffer pH 8.0, 10 µl of 10 mM dithiobisnitrobenzoic acid solution, 2.5 µl of 75 mM substrate (acetylthiocholine iodide) and 25 µl of the sample treated with thiacloprid. The OD increment was measured at 412 nm using an Infinite M200 PRO reader (Tecan). Each experiment was conducted three times. BW284c51 (CAS number: 402-40-4, Sigma) was used as a positive control.

[5] = system: E. multilocularis germinal cells; assay: CellTiter-Glo viability assay on germinal cells; format: cell-based, Echinococcus multilocularis; settings: Echinococcus multilocularis, 120 h; 5 days; CellTiter-Glo; read-out: IC50 against germinal cells
Procedure: To evaluate the activity of thiacloprid against parasitic stem cells, germinal cells from in vitro metacestode vesicles were investigated as described by Spiliotis et al.. Briefly, 20 units of cells were distributed into a black 384-well plate. Different concentrations of thiacloprid or PZQ (0, 0.06, 1.2, 2.5, 5, 10, 20, 40, 80 and 160 μM) were added to the cells. After culture at 37 °C for 5 days under a humid nitrogen atmosphere, 25 μl CellTiter-Glo containing 1% Triton X-100 was added. The plates were incubated at room temperature in the dark for 15 min. After the total destruction of the cellular aggregates, luminescence was measured using an Infinite M200 PRO reader (Tecan), and 0 μM values were set to 100% viability. The IC50 values were calculated using an online IC50 calculator after logit-log transformation. Four independent replicates were conducted.

[6] = system: Human foreskin fibroblasts (HFF); assay: alamarBlue cytotoxicity assay, HFF; format: cell-based; settings: Fibroblast, 120 h, 5 days
Procedure: (§2) An alamarBlue assay was used to assess the toxicity of thiacloprid to confluent and pre-confluent mammalian cells in vitro [29]. Human foreskin fibroblasts (HFF, Procell) and rat hepatoma cells (RH, Procell) were seeded into 96-well cell culture plates in DMEM supplemented with 10% FBS and 1% penicillin–streptomycin at 37 °C and 5% CO2. For detecting the growth inhibitory effects of confluent cells, HFF and RH cells were seeded at 10,000 cells per well and 50,000 cells per well, respectively. After overnight culture, thiacloprid or PZQ was added and diluted in serial concentrations (0, 0.6, 1.2, 2.5, 5, 10, 20, 40, 80 and 160 μM). For detecting growth inhibitory effects on proliferating cells, cells were seeded at 1000 (HFF) and 5000 (RH) cells per well. Thiacloprid was added after 5 h of cell attachment. To measure the viability of the cells after treatment for 5 days, the alamarBlue assay was employed and viability calculated as described previously.

[7] = system: E. multilocularis metacestodes; assay: PGI assay (phosphoglucose isomerase release) on metacestode vesicles; format: cell-based, Echinococcus multilocularis; settings: Echinococcus multilocularis, 120 h, read-out: EC50 against E. multilocularis metacestode by the PGI assay
Procedure: The efficacy of thiacloprid against the E. multilocularis metacestode was evaluated by applying a phosphoglucose isomerase (PGI) assay that measures the release of the enzyme phosphoglucose isomerase upon physical impairment of metacestodes. In brief, medium without phenol red (DMEM, 1% penicillin/streptomycin sulfate, 2 mM L-glutamine) was added to the same volume of vesicles and distributed to 48-well (12–15 per vesicles) plates. Subsequently, metacestodes were incubated for 5 days with different concentrations (0, 0.06, 1.2, 2.5, 5, 10, 20, 40, 80 and 160 μM) of thiacloprid or praziquantel (PZQ), after which PGI release was quantified exactly as described in Stadelmann et al.. Triton X-100 (0.1% in PBS) was applied as a positive control (maximal release of vesicle fluid). Each condition was tested in biological triplicate. After 5 days of incubation, 200 μl medium supernatant was collected from each well and stored at − 20 °C until further measurements were performed. PGI measurements were performed as described earlier, except that an Infinite M200 PRO reader (Tecan, Männedorf, Switzerland) was used to measure the increase in absorbance at 340 nm. PGI activity was calculated using the EC50 calculator (https://www.aatbio.com/tools/ec50-calculator) from the linear regression of the enzyme reaction over time and presented as a percentage relative to the values obtained by treatment of vesicles with 0.1% Triton X-100.

[8] = system: Reuber rat hepatoma (RH) cells; assay: alamarBlue cytotoxicity assay, RH cells; format: cell-based; settings: 120 h, 5 days
Procedure: as §2

Compound: CCCSc1ccc2nc(NC(=O)OC)[nH]c2c1 [ABZ, albendazole]
- Collagen fiber deposition in the host-lesion microenvironment (TEM) [1]: can promote
- mRNA expression of MMP1, MMP3, MMP9 and MMP13 in the microenvironment ([1]; qPCR): significantly inhibited
- mRNA and protein expression levels of collagen I and III in the host-lesion microenvironment ([1]; qPCR, western blot): increased
- Protein expression levels of MMP1, MMP3, MMP9 and MMP13 ([1]; western blot): decreased
- Expression of IL-2, IL-4 and IL-10 in serum compared with the untreated group [2]: consistent variations
- Expression of IgE in serum compared with the untreated group [2]: consistent variations
- HE staining of metacestodes from treated mice ([3]; 6 weeks oral treatment, thiacloprid 15 or 30 mg/kg/day, ABZ 100 mg/kg/day): germinal cells could still be observed
- Wet weight of the metacestodes ([3]; infected BALB/c mice, ABZ 100 mg/kg/day orally, 6 weeks, untreated 6.49 ± 1.18 g): 1.85 ± 0.94 g

Compound: C=CC[N+](C)(C)c1ccc(CCC(=O)CCc2ccc([N+](C)(C)CC=C)cc2)cc1.[Br-].[Br-] [BW284c51]
- Acetylcholinesterase activity in protoscoleces, metacestode vesicles and germinal cells [4]: inhibited

Compound: O=C(C1CCCCC1)N1CC(=O)N2CCc3ccccc3C2C1 (stereo not drawn) [PZQ, praziquantel]
- IC50 [5]: 2.59 ± 0.33 µM
- IC50 ([6]; confluent cells, read-out: IC50 on confluent HFF): 53.2 ± 11.1 µM
- IC50 ([6]; pre-confluent cells, read-out: IC50 on pre-confluent HFF): 6.71 ± 1.88 µM
- EC50 [7]: 7.41 ± 2.09 µM
- IC50 ([8]; confluent cells, read-out: IC50 on confluent RH cells): 25.3 ± 6.32 µM
- IC50 ([8]; pre-confluent cells, read-out: IC50 on pre-confluent RH cells): 11.6 ± 3.52 µM
